Data set [1] in a line: Kinetic solubility assay in PBS buffer. Format: physicochemical. The conditions noted are these: for solubility: PBS buffer, pH 6.5, aqueous buffer, thermodynamic from solid, read-out: Solubility (pH 6.5, μg/mL). The method, then:
Representative Compounds of the Disclosure were tested in a kinetic solubility assay in PBS buffer. PBS buffer was prepared by dissolving 4.86 g of potassium dihydrogen phosphate and 5.09 g of disodium hydrogen phosphate dodecahydrate in 1 L of ultrapure water (final pH 6.5). 0.5 mg of test sample was dissolved in 1 mL of methanol and the stock solution was transferred into 2 mL EP tube, and evaporated at 50° C. for 3 h. To the tube was added 1 mL of PBS buffer and the mixture was stirred and shaken for 1-2 h. The solution was allowed to stand overnight and then filtered before HPLC analysis. Another 1.5 mg of the sample was dissolved in 3 mL of methanol to prepare a calibration curve with a series of concentration range of 5-500 μM. The solubility of each sample was determined by the measured peak area in HPLC.

For a further data set, the system named is NCI-H929 cells. Nature of the data set: Cell viability assay (NCI-H929 cells), CCK-8. The data set is classed as cell-based. Particulars: 5% FBS. In outline:
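NCI-H929 cells (20000/well) exposed to serially diluted compounds for 24 h at 37 °C, 5% CO2. Viability by CCK-8, absorbance at 450 nm after 1-4 h, normalized to vehicle-treated cells. IC50 by nonlinear regression.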

Data set [2] is described as follows: Microsome clearance assay, human. Particulars: 0.5 mg/ml protein, 1 mM NADPH, 60 minutes; for Human Liver Microsome Clint (μL/min/mg protein): human liver microsomes, 5 μM; for microsomal CLint at 5 μM: human, pooled liver microsomes, pH 7.4, human liver microsomes, read-out: Human Liver Microsome Clint (μL/min/mg protein). Format: in vitro ADME. On the procedure: (§1) Representative Compounds of the Disclosure were tested in a microsome clearance assay. Pooled liver microsomes (20 mg/ml) from human, male Wister rat, and male CD-1 mouse were obtained from BD Bioscience (Franklin Lakes, N.J. USA). Incubation reaction mixtures contained a final concentration of 0.1M sodium phosphate buffer (pH 7.4), 0.5 mg/ml microsomal protein, 5 μM of test sample and 1 mM NADPH in a total volume of 400 μl. The incubations were done for 60 minutes and 300 μl of the mixtures was transferred to 150 μl of ice cold methanol to terminate reactions. After vortexes for 3 minutes and centrifuged at 4000 rpm at 4° C. for 10 minutes, the clear supernatant was used directly for analysis. The samples were analyzed by Applied Biosystems API 3200 Q TRAP LC/MS/MS system using electrospray ionization mode.
(In general: Liver microsomes are vesicles of endoplasmic reticulum, rich in cytochrome P450 enzymes.)

The nature of data set [3]: Microsome clearance assay, mouse. Format: in vitro ADME. Particulars: 0.5 mg/ml protein, 1 mM NADPH, 60 minutes; for Mouse Liver Microsome Clint (μL/min/mg protein): mouse liver microsomes, 5 μM; for microsomal CLint at 5 μM: male, CD-1, mouse, pooled liver microsomes, pH 7.4, mouse liver microsomes, read-out: Mouse Liver Microsome Clint (μL/min/mg protein). On the procedure: as §1

A further data set relates to OPM-2 cells. The data set is described as follows: Cell viability assay (OPM-2 cells), CCK-8. Format: cell-based. The conditions noted are these: 5% FBS. In outline: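 OPM-2 myeloma cells (20000/well) incubated with serially diluted compound for 24 h at 37 °C, 5% CO2. Viability read by CCK-8 (4 h) absorbance at 450 nm, normalised to vehicle; IC50 from nonlinear regression.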

Data set [4] can be described thus: Microsome clearance assay, rat. Format: in vitro ADME. Particulars: 0.5 mg/ml protein, 1 mM NADPH, 60 minutes; for Rat Liver Microsome Clint (μL/min/mg protein): rat liver microsomes, 5 μM; for microsomal CLint at 5 μM: male, Wister, rat, pooled liver microsomes, pH 7.4, rat liver microsomes, read-out: Rat Liver Microsome Clint (μL/min/mg protein). On the procedure: as §1

Data set [5] has as its target Mcl-1 protein (residues 171-323) (Homo sapiens (Human), UniProt Q07820). Nature of the data set: Inhibition of Mcl-1 by fluorescence polarization (FP) competitive binding assay with FAM-Bid tracer. The conditions noted are these: 2 nM FAM-Bid, 20 nM Mcl-1, 30 min, read-out: Mc1-1 (FP). In outline:
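Competitive FP binding of compounds against FAM-Bid tracer (final 2 nM) on Mcl-1 (final 20 nM) in PBS with 0.01% BGG and 0.01% Triton X-100, 5% final DMSO.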
(In fluorescence polarisation assays a small probe gives low polarisation when free and higher when bound to something large.)

The values below come from patent US11691989B2, “Macrocyclic indoles as Mcl-1 inhibitors” (ASCENTAGE PHARMA (SUZHOU) CO., LTD., priority 2018, dated 2023).

Chain of Mcl-1 protein (residues 171-323) (Q07820 171-323): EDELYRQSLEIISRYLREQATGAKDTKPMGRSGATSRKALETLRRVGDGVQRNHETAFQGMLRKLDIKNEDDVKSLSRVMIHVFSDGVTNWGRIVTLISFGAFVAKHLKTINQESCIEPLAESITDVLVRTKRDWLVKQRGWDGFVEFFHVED

On to `Cc1c(C(=O)O)n2c3ccc(Cl)c(c13)-c1c(nn(C)c1C)CSCc1cc(n(C)n1)CSc1cc(c3ccccc3c1)OCCC2` (atropisomer, axis not shown) [Cpd. No. 7, (S)-(Z)-1^5-chloro-1^3,2^1,2^5,6^1-tetramethyl-1^1H,2^1H,6^111-10-oxa-4,8-dithia-1(4,1)-indola-2(4,3),6(3,5)-dipyrazola-9(3,1)-naphthalenacyclotridecaphane-1^2-carboxylic acid], for which the “Solubility (pH 6.5, μg/mL)” value in data set [1] (PBS buffer pH 6.5) was 6 μg/mL. The IC50 in the data set with NCI-H929 cells (24 hrs) is 7440 nM; in the data set with OPM-2 cells (24 hours), above 10000 nM; in data set [5], above 1000 nM. Also, the “Human Liver Microsome Clint (μL/min/mg protein)” value in data set [2] was found to be 38.0 μL/min/mg protein. Also, the “Mouse Liver Microsome Clint (μL/min/mg protein)” value in data set [3] amounted to 245 μL/min/mg protein. Besides, the “Rat Liver Microsome Clint (μL/min/mg protein)” value in data set [4] was determined as 111 μL/min/mg protein.

As for `Cc1c(C(=O)O)n2c3ccc(Cl)c(c13)-c1c(nn3c1CC(C)(C)C3)CSCc1cc(n(C)n1)CSc1cc(c3ccc(F)cc3c1)OCCC2` [Cpd. No. 3, (Z)-1^5-chloro-9^6-fluoro-1^3,2^5,2^5,6^1-tetramethyl-2^5,2^6-dihydro-1^1H,2^4H,6^1H-10-oxa-4,8-dithia-1(4,1)-indola-2(3,2)-pyrrolo[1,2-b]pyrazola-6(3,5)-pyrazola-9(3,1)-naphthalenacyclotridecaphane-1^2-carboxylic acid], the solubility in data set [1] was below 1 µg/mL. Also, the IC50 is 391 nM in the data set with NCI-H929 cells (Homo sapiens, NCI-H929, 24 h); 386 nM with OPM-2 cells (Homo sapiens, OPM-2, 24 h); 14 nM in data set [5].

In the case of `Cc1c2c(nn1C)CSCc1cc(n(C)n1)CSc1cc(c3ccccc3c1)OCCCn1c(C(=O)O)c(Cl)c3c-2c(Cl)ccc31` [Cpd. No. 9, (Z)-1^3,1^5-dichloro-2^1,2^5,6^1-trimethyl-1^1H,2^1H,6^1H-10-oxa-4,8-dithia-1(4,1)-indola-2(4,3),6(3,5)-dipyrazola-9(3,1)-naphthalenacyclotridecaphane-1^2-carboxylic acid], in data set [1], the solubility was above 400 µg/mL. Moreover, the IC50 with NCI-H929 cells (Homo sapiens, NCI-H929, 24 h) was 479 nM; in the data set on OPM-2 cells (Homo sapiens, OPM-2, 24 h), 1250 nM; in data set [5], 14 nM.

For the compound `Cc1c(C(=O)O)n2c3ccc(Cl)c(c13)-c1c(nn3c1COCC3)CN(S(=O)(=O)C1CC1)Cc1cc(n(C)n1)CSc1cc(c3ccc(F)cc3c1)OCCC2` [Cpd. No. 31, (Z)-1^5-chloro-4-(cyclopropylsulfonyl)-9^6-fluoro-1^3, 6^1-di methyl-2^6,2^7-dihydro-1^1H,2^4H,6^1H-10-oxa-8-thia-4-aza-2(3,2)-pyrazolo[5,1-c][1,4]oxazina-1(4,1)-indola-6(3,5)-pyrazola-9(3,1)-naphthalenacyclotridecaphane-1^2-carboxylic acid], the IC50 in the data set with NCI-H929 cells (Homo sapiens, NCI-H929, 24 h) was found to be 623 nM; in the data set on OPM-2 cells (Homo sapiens, OPM-2, 24 h) it was 1940 nM; in data set [5], 16 nM. Further, the microsomal CLint at 5 μM was 7.4 µL/min/mg in data set [2], 45.2 µL/min/mg in data set [3] and 33 µL/min/mg in data set [4].

For the compound `Cc1c(C(=O)O)n2c3ccc(Cl)c(c13)-c1c(nn(C)c1C)CN(S(C)(=O)=O)Cc1cc(n(C)n1)CSc1cc(c3ccc(F)cc3c1)OCCC2` [Cpd. No. 34, (S)-(Z)-1^5-chloro-9^6-fluoro-1^3,2^1,2^5,6^1-tetramethyl-4-(methylsulfonyl)-1^1H,2^1H, 6^1H-10-oxa-8-thia-4-aza-1(4,1)-indola-2(4,3),6(3,5)-dipyrazola-9(3,1)-naphthalenacyclotridecaphane-1^2-carboxylate], the IC50 with NCI-H929 cells (24 hrs) is 8520 nM; in the data set with OPM-2 cells (24 hours) it was above 10000 nM; in data set [5], 2600 nM. The “Human Liver Microsome Clint (μL/min/mg protein)” value in data set [2] is on record as below 2.8 μL/min/mg protein. Besides, the “Mouse Liver Microsome Clint (μL/min/mg protein)” value in data set [3] is 110 μL/min/mg protein. The “Rat Liver Microsome Clint (μL/min/mg protein)” value in data set [4] is recorded as 13.0 μL/min/mg protein.

Take `Cc1c(C(=O)O)n2c3ccc(Cl)c(c13)-c1c(nn(C)c1C)CN(S(=O)(=O)C(F)(F)F)Cc1cc(n(C)n1)CSc1cc(c3ccc(F)cc3c1)OCCC2` [Cpd. No. 35, (Z)-1^5-chloro-9^6-fluoro-1^3,2^1,2^5,6^1-tetramethyl-4-((trifluoromethyl)sulfonyl)-1^1H,2^1H,6^1H-10-oxa-8-thia-4-aza-1(4,1)-indola-2(4,3),6(3,5)-dipyrazola-9(3,1)-naphthalenacyclotridecaphane-1^2-carboxylic acid]: the IC50 with NCI-H929 cells (Homo sapiens, NCI-H929, 24 h) is 25 nM; in the data set with OPM-2 cells (Homo sapiens, OPM-2, 24 h), 57 nM; in data set [5], 15 nM. The results for the microsomal CLint at 5 μM in data set [2], in data set [3] and in data set [4] were 53.2 µL/min/mg, 156 µL/min/mg and 42 µL/min/mg, respectively.

Take `Cc1c(C(=O)O)n2c3ccc(Cl)c(c13)-c1c(nn(C)c1C)CN(S(C)(=O)=O)Cc1cc(n(C)n1)CSc1cc(c3ccccc3c1)OCCC2` [Cpd. No. 46, (Z)-1^5-chloro-1^3,2^1,2^5,6^1-tetramethyl-4-(methylsulfonyl)-1^11-1,2^1H,6^1H-10-oxa-8-thia-4-aza-1(4,1)-indola-2(4,3),6(3,5)-dipyrazola-9(3,1)-naphthalenacyclotridecaphane-1^2-carboxylic acid]: the IC50 came to 300 nM in the data set with NCI-H929 cells (Homo sapiens, NCI-H929, 24 h); 637 nM in the data set on OPM-2 cells (Homo sapiens, OPM-2, 24 h); 8 nM in data set [5]. Besides, the microsomal CLint at 5 μM is 8 µL/min/mg in data set [2], 43.4 µL/min/mg in data set [3] and 21.6 µL/min/mg in data set [4].

Turning to `COCCN1Cc2cc(n(C)n2)CSc2cc(c3ccc(F)cc3c2)OCCCn2c(C(=O)O)c(C)c3c(c(Cl)ccc32)-c2c(nn3c2COCC3)C1` [Cpd. No. 50, (Z)-1^5-chloro-9^6-fluoro-4-(2-methoxyethyl)-1^3, 6^1-dim ethyl-2^6,2^7-dihydro-1^1H,2^4H,6^1H-10-oxa-8-thia-4-aza-2(3,2)-pyrazolo[5,1-c][1,4]oxazina-1 (4,1)-indola-6(3,5)-pyrazola-9(3,1)-naphthalenacyclotridecaphane-1^2-carboxylic acid], the IC50 in the data set with NCI-H929 cells (Homo sapiens, NCI-H929, 24 h) was determined as 226 nM; in the data set with OPM-2 cells (Homo sapiens, OPM-2, 24 h), 1640 nM; in data set [5] it was 20 nM. Further, the values for the microsomal CLint at 5 μM in data set [2], in data set [3] and in data set [4] were 10.2 µL/min/mg, 65.2 µL/min/mg and 22.2 µL/min/mg, respectively.

Take `Cc1c(C(=O)O)n2c3ccc(Cl)c(c13)-c1c(nn3c1COCC3)CN(CCNS(C)(=O)=O)Cc1cc(n(C)n1)CSc1cc(c3ccc(F)cc3c1)OCCC2` [Cpd. No. 51, (Z)-1^5-chloro-9^6-fluoro-1^3, 6^1-di methyl-4-(2-(methylsulfonamido)ethyl)-26,27-dihydro-1^1H,2^4H,6^1H-10-oxa-8-thia-4-aza-2(3,2)-pyrazolo[5,1-c][1,4]oxazina-1(4,1)-indola-6(3,5)-pyrazola-9(3,1)-naphthalenacyclotridecaphane-1^2-carb oxylic acid]: the IC50 was 1540 nM in the data set on NCI-H929 cells (Homo sapiens, NCI-H929, 24 h); 5820 nM with OPM-2 cells (Homo sapiens, OPM-2, 24 h); 17 nM in data set [5]. Further, the microsomal CLint at 5 μM in data set [2] is 7.4 µL/min/mg; in data set [3], 30.6 µL/min/mg; in data set [4], 15 µL/min/mg.

Regarding `Cc1c(C(=O)O)n2c3ccc(Cl)c(c13)-c1c(nn(C)c1C)CN(C(C)C)Cc1cc(n(C)n1)CSc1cc(c3ccc(F)cc3c1)OCCC2` [Cpd. No. 53, (Z)-1^5-chloro-9^6-fluoro-4-isopropyl-1^3,2^1,2^5,6^1-tetramethyl-1^1H,2^1H,6^1H-10-oxa-8-thia-4-aza-1(4,1)-indola-2(4,3),6(3,5)-dipyrazola-9(3,1)-naphthalenacyclotridecaphane-1^2-carboxylic acid], the IC50 with NCI-H929 cells (Homo sapiens, NCI-H929, 24 h) was determined as 222 nM; in the data set with OPM-2 cells (Homo sapiens, OPM-2, 24 h), 1710 nM; in data set [5], 34 nM. The microsomal CLint at 5 μM in data set [2] turned out to be 18.6 µL/min/mg; in data set [3] it was 59.2 µL/min/mg; in data set [4], 30 µL/min/mg.
